These results are taken from PubChem BioAssay (NCI).

Among the test systems are SNB-75 CNS; SW-620 colon; HCT-15 colon; RPMI-8226 leukemia; 786-0 renal; NCI-H226 lung; OVCAR-4 ovarian; DU-145 prostate; K-562 leukemia; SR leukemia.
Common to all, as to experiment: growth of human tumour cells (NCI), 48 h

Values joined by “and” are separate entries in the source; they are usually repeats but may differ in a detail not shown here. Equal entries are not always repeated.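 The compound was tested at five concentrations on cells cultured in 96-well plates, with a 48-hour exposure period. GI50: concentration for 50% inhibition of growth. The concentration for full growth arrest is given as TGI.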

With `Cn1c(N2NC(=O)C(N=Nc3ccc(S(N)(=O)=O)cc3)C2=O)nc(-c2ccco2)c(C#N)c1=O` (stereo not given), the GI50 in the test with SNB-75 CNS is 39.2 µM; with SW-620 colon, 9.23 µM; in the test with HCT-15 colon, 8.44 µM; in the test with RPMI-8226 leukemia it was 4.98 µM; with 786-0 renal, over 50 µM; in the test with NCI-H226 lung, over 50000 nM. In addition, the GI50 is 8 µM in the test on OVCAR-4 ovarian, 14.9 µM in the test on DU-145 prostate, 5.69 µM in the test with K-562 leukemia and 2890 nM with SR leukemia. Also, the TGI was over 50 µM in the test on SNB-75 CNS; 28.6 µM with SW-620 colon; 22.1 µM in the test with HCT-15 colon; 30.2 µM in the test with RPMI-8226 leukemia; over 50 µM in the test with 786-0 renal; over 50 µM in the test with NCI-H226 lung. Also, the TGI with OVCAR-4 ovarian was 23.9 µM; in the test with DU-145 prostate, over 50 µM; in the test with K-562 leukemia, 31.2 µM; with SR leukemia, 28.4 µM.

With `CCOC(=O)CCc1cc(=O)oc2cc(O)cc(O)c12`, the TGI with SNB-75 CNS, with SW-620 colon, with HCT-15 colon, in the test on RPMI-8226 leukemia, in the test on 786-0 renal and in the test with NCI-H226 lung was over 100 µM in each case. Moreover, the TGI in the test with OVCAR-4 ovarian, in the test on DU-145 prostate, in the test on K-562 leukemia and with SR leukemia was over 100 µM throughout.

As for `CN(C)CCC(=O)N1C/C(=C/c2ccccc2)C(=O)/C(=C\c2ccccc2)C1`, the TGI in the test on SNB-75 CNS stood at 15.1 µM; in the test with SW-620 colon, 1.22 µM; with HCT-15 colon, 3.91 µM; with RPMI-8226 leukemia, 0.717 µM; with 786-0 renal it was 3.62 µM; in the test on NCI-H226 lung, 12.6 µM. The TGI came out at 7.98 µM in the test with OVCAR-4 ovarian, 18.5 µM in the test on DU-145 prostate, 0.973 µM with K-562 leukemia and 8.63 µM with SR leukemia.

Regarding `C[C@]12CC[C@H](O)CC1=CC[C@@H]1[C@@H]2CC[C@]2(C)C(c3cccnc3)=CC[C@@H]12`, the GI50 in the test on SNB-75 CNS is 7.69 µM; in the test with SW-620 colon it was over 100 µM; in the test with HCT-15 colon, 25.8 µM; with RPMI-8226 leukemia it was 5.1 µM; with 786-0 renal it was 5.18 µM; in the test on NCI-H226 lung, over 68000 nM. The GI50 in the test on OVCAR-4 ovarian was 95.2 µM; with DU-145 prostate it was over 100 µM; in the test on K-562 leukemia it was 3.99 µM; in the test on SR leukemia, 9440 nM. Moreover, the TGI was over 48.7 µM with SNB-75 CNS; over 100 µM in the test with SW-620 colon; over 100 µM in the test with HCT-15 colon; over 100 µM in the test with RPMI-8226 leukemia; over 100 µM in the test with 786-0 renal; over 100 µM in the test on NCI-H226 lung. Moreover, the TGI in the test on OVCAR-4 ovarian, with DU-145 prostate, with K-562 leukemia and in the test on SR leukemia was over 100 µM throughout.

`Cc1c(C(=O)N/N=C/c2ccc(Cl)cc2)nnn1-c1ccnc2c(C(F)(F)F)cccc12`: the GI50 with SNB-75 CNS was 2.63 µM; in the test with SW-620 colon it was 5.09 µM; in the test with HCT-15 colon it was 2.88 µM; with RPMI-8226 leukemia, 4.2 µM; in the test with 786-0 renal it was 18.5 µM; with NCI-H226 lung, 2770 nM. The GI50 with OVCAR-4 ovarian is 2.9 µM; in the test on DU-145 prostate, 4.89 µM; with K-562 leukemia, 5.74 µM; with SR leukemia it was 3600 nM. Also, the TGI was determined as 5.18 µM in the test with SNB-75 CNS; 47.6 µM in the test on SW-620 colon; 16.3 µM in the test with HCT-15 colon; 31.1 µM in the test on RPMI-8226 leukemia; 37.8 µM in the test on 786-0 renal; 8.32 µM in the test with NCI-H226 lung. Further, the TGI with OVCAR-4 ovarian stood at 6.08 µM; with DU-145 prostate, 20.5 µM; in the test with K-562 leukemia it was 42.2 µM; with SR leukemia, 12.3 µM.

Regarding `O=C(NCCOCCOCCNc1cccc2c1C(=O)N(C1CCCNC1=O)C2=O)c1cc2c(o1)C(=O)c1ccccc1C2=O` (stereo not given), the GI50 is 2.65 µM in the test on SNB-75 CNS; 2.35 µM in the test with SW-620 colon; 2.06 µM in the test with HCT-15 colon; 3.29 µM in the test with RPMI-8226 leukemia; 3.26 µM in the test with 786-0 renal; 1780 nM in the test with NCI-H226 lung. In addition, the GI50 is 1.41 µM in the test on OVCAR-4 ovarian, 1.69 µM in the test with DU-145 prostate, 2.75 µM in the test on K-562 leukemia and 2630 nM in the test with SR leukemia. Besides, the TGI in the test with SNB-75 CNS stood at 4.61 µM; in the test with SW-620 colon it was 7.52 µM; in the test on HCT-15 colon, 5.5 µM; in the test with RPMI-8226 leukemia, 14.1 µM; in the test with 786-0 renal, 10.9 µM; with NCI-H226 lung, 3.95 µM. The TGI is 2.73 µM with OVCAR-4 ovarian, 3.11 µM with DU-145 prostate, 11.1 µM with K-562 leukemia and over 100 µM in the test on SR leukemia.

For the molecule `CCOC(=O)/C=C(/C(=O)OCC)n1cc(Cl)c(=O)n(CC(=O)OCC)c1=O`, the GI50 was 16.6 µM with SNB-75 CNS; 3.04 µM in the test with SW-620 colon; 19 µM in the test with HCT-15 colon; 2.78 µM in the test on 786-0 renal; 34.2 µM with OVCAR-4 ovarian; 4.24 µM in the test on K-562 leukemia. The TGI is 13 µM and 33.6 µM with SNB-75 CNS; 4.45 µM and 12.9 µM in the test on SW-620 colon; 10.5 µM and 40.1 µM in the test on HCT-15 colon; 5.73 µM in the test with RPMI-8226 leukemia; 2.48 µM and 7.5 µM with 786-0 renal; > 25 µM and 32.5 µM with NCI-H226 lung. Besides, the TGI is 14 µM and > 100 µM with OVCAR-4 ovarian; 8.47 µM and 31.3 µM in the test with DU-145 prostate; 25 µM and > 100 µM in the test with K-562 leukemia; 25 µM in the test on SR leukemia.

`O=C(Nc1ccc(N2CCNCC2)cc1)c1[nH]ncc1Nc1cc(Oc2ccccc2)ncn1`: the GI50 in the test with SNB-75 CNS was 2.45 µM; in the test on SW-620 colon, 0.514 µM; with HCT-15 colon it was 2.18 µM; in the test on RPMI-8226 leukemia, 1.5 µM; in the test on 786-0 renal, 1.84 µM; in the test on NCI-H226 lung, 1910 nM. In addition, the GI50 in the test on OVCAR-4 ovarian is 2.59 µM; in the test on DU-145 prostate it was 3.03 µM; in the test with K-562 leukemia, 2.22 µM; in the test with SR leukemia, 299 nM. In addition, the TGI was determined as 5.6 µM in the test with SNB-75 CNS; 1.94 µM in the test on SW-620 colon; 5.64 µM in the test with HCT-15 colon; 3.88 µM with RPMI-8226 leukemia; 3.33 µM with 786-0 renal; 10.5 µM with NCI-H226 lung. The results for the TGI in the test with DU-145 prostate, with K-562 leukemia and with SR leukemia were 11.2 µM, 10.9 µM and 1.84 µM, respectively.
